Data taken from patent publication US7259002B2, “Polynucleotide encoding a novel acyl coenzyme A, monoacylglycerol acyltransferase-3 (MGAT3), and uses thereof” (Bristol-Myers Squibb Company, priority 2003, dated 2007).

Tests used:
Assay type in all cases: biochemical
recombinant human MGAT3 = biological target: T1, recombinant human MGAT3 (Homo sapiens, UniProt Q86VF5); assay: Substrate concentration titration and substrate specificity in the MGAT enzyme assay; settings: for optimal substrate concentration: 10 μg membrane fractions, 10 min at 37° C.; for substrate optimum for acyl-CoAs: acyl-CoAs at 50 μM, 200 μM sn-2-[3H]monooleoylglycerol tracer
T1 construct: predicted to contain the entire open reading frame, was chosen for further study; made in house; host or cells: Spodoptera frugiperda Sf9 insect cells (baculovirus, Bac-to-Bac); 100,000 x g membrane fractions
T1 sequence (Q86VF5 1-341): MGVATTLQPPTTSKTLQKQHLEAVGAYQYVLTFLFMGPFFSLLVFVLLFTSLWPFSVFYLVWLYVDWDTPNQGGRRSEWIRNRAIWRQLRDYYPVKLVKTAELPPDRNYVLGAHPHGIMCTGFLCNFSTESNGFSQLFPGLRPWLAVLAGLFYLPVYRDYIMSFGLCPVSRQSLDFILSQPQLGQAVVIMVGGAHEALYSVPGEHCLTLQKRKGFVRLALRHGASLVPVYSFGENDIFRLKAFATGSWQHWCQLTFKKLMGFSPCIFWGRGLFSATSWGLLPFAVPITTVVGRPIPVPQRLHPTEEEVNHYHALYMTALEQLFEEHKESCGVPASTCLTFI
Experimental: Sf9 cells were setup and infected with either wild type or recombinant MGAT3 viruses as in FIG. 4. After 2 days of infection, the cells were harvested, membrane fractions were prepared and aliquots of membranes were subjected to MGAT enzyme assays with various concentrations of substrates. For A, 200 μM sn-2-monooleoylglycerol and various amounts of [14C]oleoyl coenzyme A (20,000 dpm/nmol) and for B, 50 μM [14C]oleoyl coenzyme A (20,000 dpm/nmol) and various amounts of sn-2-monooleoylglycerol were incubated with 10 μg membrane fractions for 10 min at 37° C. Lipid bands corresponding to TAG and DAG were cut from TLC sheets and counted with scintillation counter. Activities were corrected values of recombinant membranes deducted by values of wild type membranes. Duplicated assays were conducted and the standard deviations were smaller than 10% of the mean.
Sf9 cells were setup and infected either with wild type, recombinant MGAT3 or with DGAT2 viruses as in FIG. 4. Aliquots of membrane fractions (10 μg) were subjected to MGAT assays to determine A) MAG stereoisomer specificity and B) preference of fatty acyl-CoAs. In A, 50 μM [14C]oleoyl coenzyme A (20,000 dpm/nmol) and 200 μM of sn-1-monooleoyglycerol (1-MAG), sn-2-monooleoyglycerol (2-MAG), or […] (3-MAG); and in B, 200 μM sn-2-[3H]monooleoylglycerol (20,000 dpm/nmol) and different acyl-CoAs at 50 μM were incubated with 10 μg membrane fractions at 37° C. for 10 min. C2, acetyl-CoA; M, malonyl-CoA; C4:0, butyryl-CoA; C12:0, lauroyl-CoA; C16:0, palmitoyl-CoA; C18:0, stearoyl-CoA; C20:0, arachidoyl-CoA; C18:1, oleoyl-CoA; C18:2, linoleoyl-CoA; C20:4, arachidonoyl-CoA.
MGAT activities were assayed for 5-10 min at 37° C. in a final volume of 200 μl according to a protocol modified from Coleman (Coleman, R. A. (1992) Methods Enzymol. 209:98-104). Each reaction contained 10 μg of membrane proteins in Assay Buffer (100 mM Tris-HCl, pH7.5, 5 mM MgCl2, 1.25 mg/ml BSA, 250 mM sucrose, 800 μM phophatidylcholine liposomes). Generally, 50 μM of acyl coenzyme A and 200 μM sn-2-monoacylglycerol (delivered in acetone, final acetone concentration <2%) were used. Reactions were started by adding protein and terminated by adding 4 ml chloroform/methanol (2/1, v/v). The extracted lipids were dried, separated by thin layer chromatography (TLC) with hexane/ethyl ether/acetic acid (85/15/0.5, v/v/v).
Identities of triacylglycerol (TAG), diacylglycerol (DAG), monoacylglycerol (MAG), free fatty acid (FFA) and other lipids were verified with lipid standards (Sigma) after staining with iodine vapor. The specific enzyme activities were traced by measuring the incorporation of [14C]oleoyl-CoA (20,000 dpm/nmol) or sn-2-[3H] monooleolyglycerol (20,000 dpm/nmol). Chromatograms were also analyzed with STORM PhosphoImager.

[1] = MGAT enzyme assay (TLC, scintillation counting) of membranes from Sf9 cells expressing the recombinant enzyme; settings: 50 μM [14C]oleoyl coenzyme A
Experimental: Sf9 cells were setup and infected with wild type or recombinant MGAT3 viruses as in FIG. 4. Membrane extracts were prepared from the cells with various post infection times. Aliquots of membrane fractions were either subjected to A) immunoblot analysis with anti-FLAG IgG; or to B) TLC enzyme assays. For substrates, 200 μM sn-2-monooleoylglycerol and 50 μM [14C]oleoyl coenzyme A (20,000 dpm/nmol) were incubated with 10 μg membrane fractions for 6 min at 37° C. After TLC separation, the DAG and the TAG bands were cut from TLC sheets and subjected to scintillation counting. The activities were expressed as nmol/min/mg protein. Values were averages of duplicated determinations and the standard deviations were smaller than 10% of the mean.
The predicted coding sequence of human MGAT3 was fused with an NH2-terminal FLAG epitope (MGDYKDDDDG, (SEQ ID NO:21) epitope underlined) and expressed in Spodoptera frugiperda (Sf9) insect cells using Bac-to-Bac™ kit (Life Technologies) according to manufacturer's instructions. Recombinant FLAG-human-DGAT2 was expressed in the same manner as a control. Generally, cells were infected with viruses (MOI>3) for 2 days. After harvest, cells were washed with PBS, and then homogenized with a probe sonicator in Homogenization Buffer (10 mM Tris-HCl, pH 7.4, 250 mM sucrose, 1× Protease Inhibitor Cocktail [Roche]). Membrane fractions (100,000×g pellets) were stored at −80° C. until use for enzymatic assays. For immunoblot analysis, aliquots of 2 μg of membrane proteins were loaded on SDS-PAGE and probed with an anti-FLAG M2 IgG (Sigma).
MGAT activities were assayed for 5-10 min at 37° C. in a final volume of 200 μl according to a protocol modified from Coleman (Coleman, R. A. (1992) Methods Enzymol. 209:98-104). […]
Identities of triacylglycerol (TAG), diacylglycerol (DAG), monoacylglycerol (MAG), free fatty acid (FFA) and other lipids were verified with lipid standards (Sigma) after staining with iodine vapor. […] Chromatograms were also analyzed with STORM PhosphoImager.

[2] = DGAT activity: exogenous DAG assayed directly with recombinant membranes (TLC); settings: Sf9 membranes, [14C]oleoyl-CoA tracer
[3] = Sf9 cell membranes, 200 μM sn-2-monooleoylglycerol, 6 min at 37° C., highest value of time course

CCCCCCCC/C=C\CCCCCCCC(=O)OC(CO)CO [2-monooleoylglycerol, sn-2-monooleoylglycerol]
optimal substrate concentration (recombinant human MGAT3): 200 µM | MAG stereoisomer specificity (DAG synthesis) (recombinant human MGAT3; 200 μM MAG, 50 μM [14C]oleoyl coenzyme A): prefers 2-MAG as the substrate

CCCCCCCC/C=C\CCCCCCCC(=O)SCCNC(=O)CCNC(=O)[C@H](O)C(C)(C)COP(=O)(O)OP(=O)(O)OC[C@H]1O[C@@H](n2cnc3c(N)ncnc32)[C@H](O)[C@@H]1OP(=O)(O)O [oleoyl-CoA]
optimal substrate concentration (recombinant human MGAT3): 50 µM | substrate optimum for acyl-CoAs (recombinant human MGAT3): best substrates

CCCCCCCCCCCCCCCC(=O)SCCNC(=O)CCNC(=O)[C@H](O)C(C)(C)COP(=O)(O)OP(=O)(O)OC[C@H]1O[C@@H](n2cnc3c(N)ncnc32)[C@H](O)[C@@H]1OP(=O)(O)O [palmitoyl-CoA]
substrate optimum for acyl-CoAs (recombinant human MGAT3): best substrates

B1: MGAT3: monoacylglycerol acyltransferase-3, 341 amino acid protein of SEQ ID NO:2 (protein, listed as Homo Sapiens)
chain: MGVATTLQPPTTSKTLQKQHLEAVGAYQYVLTFLFMGPFFSLLVFVLLFTSLWPFSVFYLVWLYVDWDTPNQGGRRSEWIRNRAIWRQLRDYYPVKLVKTAELPPDRNYVLGAHPHGIMCTGFLCNFSTESNGFSQLFPGLRPWLAVLAGLFYLPVYRDYIMSFGLCPVSRQSLDFILSQPQLGQAVVIMVGGAHEALYSVPGEHCLTLQKRKGFVRLALRHGASLVPVYSFGENDIFRLKAFATGSWQHWCQLTFKKLMGFSPCIFWGRGLFSATSWGLLPFAVPITTVVGRPIPVPQRLHPTEEEVNHYHALYMTALEQLFEEHKESCGVPASTCLTFI
specific activity for DAG [1, 3]: 22.8 nmol/min/mg | specific activity for TAG [1, 3]: 9.3 nmol/min/mg | acylation of exogenous DAG to TAG (DGAT activity) [2]: able to acylate DAG to form TAG directly

B2: DGAT2: recombinant human diacylglycerol acyltransferase 2 expressed in the same manner as a control (protein, listed as Homo Sapiens)
chain: MKTLIAAYSGVLRGERQAEADRSQRSHGGPALSREGSGRWGTGSSILSALQDLFSVTWLNRSKVEKQLQVISVLQWVLSFLVLGVACSAILMYIFCTDCWLIAVLYFTWLVFDWNTPKKGGRRSQWVRNWAVWRYFRDYFPIQLVKTHNLLTTRNYIFGYHPHGIMGLGAFCNFSTEATEVSKKFPGIRPYLATLAGNFRMPVLREYLMSGGICPVSRDTIDYLLSKNGSGNAIIIVVGGAAESLSSMPGKNAVTLRNRKGFVKLALRHGADLVPIYSFGENEVYKQVIFEEGSWGRWVQKKFQKYIGFAPCIFHGRGLFSSDTWGLVPYSKPITTVVGEPITIPKLEHPTQQDIDLYHTMYMEALVKLFDKHKTKFGLPETEVLEVN
modifications: FLAG tag
notes: recombinant human diacylglycerol acyltransferase 2 expressed in the same manner as a control
TAG synthesis from MAG stereoisomers ([1]; Sf9 membranes, 1-MAG, 2-MAG or 3-MAG at 200 μM): able to synthesize similar amount of TAG using three different MAG stereoisomers
